Assay type in all cases: functional
Assay [1] relates to Mycobacterium tuberculosis. The experiment in a line: Antibacterial activity against drug-resistant Mycobacterium tuberculosis 164 by microbroth dilution method. (Broth dilution looks for growth in wells or tubes with falling amounts of substance.)
Assay [2] concerns Mycobacterium tuberculosis. The assay is described as follows: Antibacterial activity against drug-resistant Mycobacterium tuberculosis 926 by microbroth dilution method.
The subject of assay [3] is Mycobacterium tuberculosis. The assay is described as follows: Ratio of isoniazid MIC to compound MIC for extensively drug-resistant Mycobacterium tuberculosis.
Assay [4] has as its system Mycobacterium tuberculosis. The assay is described as follows: Ratio of rifampicin MIC to compound MIC for extensively drug-resistant Mycobacterium tuberculosis.

Values after ≈ are worked out from the molar mass of the structure shown.

Consider `NCCC[C@H](N)CC(=O)NCCC[C@H](N)CC(=O)N[C@@H]1[C@H](O)[C@@H](O)[C@@H](COC(N)=O)O[C@H]1/N=C1\N[C@@H]2[C@H](O)CNC(=O)[C@H]2N1`, for which the MIC in assay [1] and in assay [2] was 8 µg/mL (≈ 12.7 µM) in each case.
Consider `CO[C@H]1/C=C/O[C@@]2(C)Oc3c(C)c(O)c4c(O)c(c(/C=N/N5CCN(C)CC5)c(O)c4c3C2=O)NC(=O)/C(C)=C\C=C\[C@H](C)[C@H](O)[C@@H](C)[C@@H](O)[C@@H](C)[C@H](OC(C)=O)[C@@H]1C` [RIFAMPIN], for which the MIC in assay [1] is 32 µg/mL (≈ 38.9 µM); in assay [2], 16 µg/mL (≈ 19.4 µM).
`NNC(=O)c1ccncc1` [ISONIAZID]: the minimal inhibitory concentration (MIC) in assay [1] and in assay [2] was 4 µg/mL (≈ 29.2 µM) each time.
Turning to `NCCC[C@H](N)CC(=O)NCCC[C@H](N)CC(=O)N[C@@H]1[C@H](O)[C@@H](OC(N)=O)[C@@H](CO)O[C@H]1NC1=N[C@@H]2C(=O)NC[C@@H](O)[C@H]2N1` [STREPTOTHRICIN E], the results for the minimum inhibitory concentration (MIC) in assay [1] and in assay [2] were 0.5 µg/mL (≈ 0.793 µM) and 0.25 µg/mL (≈ 0.396 µM), respectively. Moreover, the Ratio in assay [3] and in assay [4] was 8 throughout.

For orientation: MIC means the lowest concentration that inhibits growth of the organism. A higher MIC goes with weaker potency.

(Values after ChEMBL document CHEMBL2086335, “Three new 12-carbamoylated streptothricins from Streptomyces sp. I08A 1776” (2012).)
